The source of these data is patent US5324747A, “N-substituted anilines, inhibitors of phospholipases A2” (Hoffmann-La Roche Inc., priority 1992, dated 1994).

The target of one assay is T1, HSF-PLA2 (Homo sapiens, UniProt P14555).
T1 construct: extracellular enzyme obtained from human synovial fluid (HSF-PLA2); from tissue; host or cells: pooled human synovial fluid, added at 0.1% (v/v)
T1 sequence (P14555 21-144): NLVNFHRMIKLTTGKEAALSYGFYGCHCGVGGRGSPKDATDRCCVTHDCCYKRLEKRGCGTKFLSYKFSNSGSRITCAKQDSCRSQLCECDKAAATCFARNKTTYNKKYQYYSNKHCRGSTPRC
Kind of assay: Assay for Inhibition of HSF-PLA2 In Vitro. It counts as biochemical. As to conditions: for IC50: read-out: Inhib of HSF-PLA2 IC50; for inhibition at 10 µM / inhibition at 5 µM / inhibition at 1 µM / inhibition at 20 µM: read-out: Inhib of HSF-PLA2, % inhibition. The method, then: Assay for Inhibition of HSF-PLA2 In Vitro
The PLA2 used in this test is the extracellular enzyme obtained from human synovial fluid (HSF-PLA2).
The optimal conditions which were developed for the assay of HSF-PLA2 inhibitors are summarized as follows. […] The reaction was initiated by the addition of HSF-PLA2 and duplicate samples of the mixture were incubated in 13×100 mm glass tubes with shaking for 30 minutes at 37° C. […] The extraction of lipids from the stopped reaction mixture was conducted by the further additions of […] of chloroform and 1 ml of water with mixing. After centrifuging, the lower chloroform phase was transferred to smaller glass tubes and the solvent was evaporated to dryness with a nitrogen stream. The extracted lipid residue was redissolved in 50 μl of a solution containing carrier oleic acid (0.2 mg/ml) of chloroform-methanol [9 to 1, v/v]). The whole lipid extract was applied to a preactivated (30 minutes at 110° C.) silica gel-impregnated glass fiber thin layer chromatography sheet (ITLC type SG sheet from Gelman Sciences, Inc., Ann Arbor, Mich.) using hexane-acetic acid (100 to 1, v/v) as the developing solvent. This TLC system rapidly (6 minutes) resolved the enzymatically released product, ^14 C-oleic acid, from the unreacted ^14 C-phospholipid substrate. The unsaturated lipids were located on the chromatogram by a brief exposure to iodine vapor. […] A control incubation of substrate in the absence of HSF-PLA2 was performed in each experiment.

A further assay deals with PLA2 Rat Paw Edema. Nature of the assay: Phospholipase A2 Rat Paw Edema. As to conditions: Rattus norvegicus; 2 hr; 30 mg/kg; read-out: % Inhib of PLA2 Rat Paw Edema 2 hr (30 mg/kg). It counts as in vivo, Lewis rats. On the procedure:
Phospholipase A2 Rat Paw Edema
Representation compounds of the invention were tested in rats to determine their ability to inhibit the acute inflammatory response induced by the injection of snake venom phospholipase A2. Test compounds are administered intraperitoneally or orally to groups of seven Lewis rats (≈200 gm) 1 hr prior to phospholipase A2 administration. The test compounds are dissolved in dimethyl sulfoxide for intraperitoneal administration and dissolved or suspended in Labrafil M-1944CS for oral administration. At 0 hr, 5 ug (10 units) of purified phospholipase A2 from Naja naja venom (Sigma Chem. Co.) dissolved in 0.1 mL of pyrogen free saline is injected subplantarly into the right hind paw to elicit the inflammatory response. The volume (in mL) of the right hind paw is measured by immersion of the paw to the level of the lateral malleolus in an aqueous plethysmometer immediately prior to the injection of phospholipase A2 and then at 0.5, 2 and 4 hr after phospholipase A2 injection. The paw edema is calculated by subtracting the zero time reading from the readings taken after injection. The percent change of the edema volume from the vehicle treated control is calculated to determine the activity of the test compound. Statistical analysis of the mean paw edema values of the control versus the treated groups is performed using Student's t-test. Significance of changes from mean value for vehicle-treated animals (*p<0.05, **p<0.01, ***p<0.001, ns/not significant).

What is called IC50 is the midpoint of a concentration-inhibition curve. As a reminder, the inhibition is the relative decrease from the control value, in per cent.

SMILES strings stand for the structures. Where a name gives a salt, the structure may show the parent alone.

On to `CCCCCCCCCCCCCCCCCCOc1cc(OCCCCCCCCCCC(=O)O)cc(N(CC(=O)O)CC(=O)O)c1` [Example 58e], for which the IC50 on HSF-PLA2 was 200 nM.
For the molecule `CCCCCCCCCCCCCCOc1cc(NCC(=O)O)cc(OCCCCCCCCCCCCCC)c1` [Example 127c, N-[3,5-bis(tetradecyloxy)phenyl]glycine], the inhibition at 10 µM on HSF-PLA2 was determined as 73%.
On to `CCCCCCCC/C=C\CCCCCCCC(=O)Nc1cccc(N(CC(=O)O)CC(=O)O)c1` [Example 51], for which the inhibition at 5 µM on HSF-PLA2 stood at 63%.
Take `CCCCC/C=C\C/C=C\CCCCCCCC(=O)Nc1cccc(N(CC(=O)O)CC(=O)O)c1` [Example 51, N-(carboxymethyl)-N-[3-[(9Z,12Z)-(1-oxo-9,12-octadecadienyl)amino]phenyl]glycine]: the inhibition at 5 µM at HSF-PLA2 is 67%.
Turning to `CCCCCCCCCCc1ccc(N(CC(=O)O)CC(=O)O)cc1` [Example 39d, N-(carboxymethyl)-N-(4-decylphenyl)glycine], the inhibition at 1 µM at HSF-PLA2 was 39%.
Regarding `CCCCc1ccc(N(CC(=O)O)CC(=O)O)cc1` [Example 39b, N-(carboxymethyl)-N-(4-butylphenyl)glycine], the inhibition in vivo at 30 mg/kg in the assay with PLA2 Rat Paw Edema is -9%. The IC50 at HSF-PLA2 amounted to 264000 nM.
Consider `CCCCCCCCCCc1cc(CCCCCCCCCC)cc(N(CC(=O)O)CC(=O)O)c1` [Example 29, N-(Carboxymethyl)-N-(3,5-didecylphenyl) glycine], for which, on HSF-PLA2, the IC50 was determined as 1500 nM.
Same read-out and setting: the result for `CCCCCCCCCCCCCCCCCCNC(=O)c1cc(C(=O)NCCCCCCCCCCCCCCCCCC)cc(N(CC(=O)O)CC(=O)O)c1` [Example 6r, N-(carboxymethyl)-N-[3,5-bis[(octadecylamino)carbonyl]phenyl]glycine] reads 640 nM; that for `CCCCCCCCCCCCCCCCCCOc1cc(OC(=O)C(c2ccccc2)c2ccccc2)cc(N(CC(=O)O)CC(=O)O)c1` [Example 58g], 100 nM.
For `CCCCCCCCC(O)COc1cc(NCC(=O)O)cc(OCC(O)CCCCCCCC)c1` (stereo not drawn) [127 d], the IC50 at HSF-PLA2 stood at 3500 nM.
Still for that read-out and setting: the result for `CCCCC/C=C\C/C=C\CCCCCCCCOc1cccc(N(CC(=O)O)CC(=O)O)c1` [Example 49, N-(carboxymethyl)-N-[3-[(9Z,12Z)-(9,12-octadecadienyl]oxy]phenyl]glycine] reads 200 nM.
Consider `CCCCCCCCCCCCCCCCCCOc1cc(OCCCCCCCCCCCCCCCCCC)cc(N(CC(=O)O)CC(=O)O)c1` [Example 6f, N-(carboxymethyl)-N-[3,5-bis(octadecyloxy)phenyl]glycine], for which, on HSF-PLA2, the IC50 was 500 nM.
Still for that read-out and setting: to `CCCCCCCCCCCCCCCCCCCc1cccc(N(CC(=O)O)CC(=O)O)c1` [Example 36f, N-(carboxymethyl)-N-(3-nonadecylphenyl)glycine] belongs 200 nM.
Turning to `CCCCCCCCCCCCCCCCCCCc1cc(CCCCCCCCCCCCCCCCCCC)cc(N(CC(=O)O)CC(=O)O)c1` [Example 6t, N-(carboxymethyl)-N-(3,5-dinonadecylphenyl)glycine], at HSF-PLA2, the inhibition at 10 µM amounted to 39%.
Consider `CCCCCCCCCCCCCCCCCCOc1cc(OCCCCCCCCCCC(=O)OC)cc(N(CC(=O)O)CC(=O)O)c1` [Example 58d, N-(carboxymethyl)-N-[3-(11-methoxy-11-oxoundecyloxy)-5-(octadecyloxy)phenyl]glycine], for which the IC50 on HSF-PLA2 came to 80 nM.
For `CCCCCCCCCCCCCCCCCCOc1cc(OC(=O)C23CC4CC(CC(C4)C2)C3)cc(N(CC(=O)O)CC(=O)O)c1` [Example 58f, N-(Carboxymethyl)-N-[[3-(octadecyloxy)-5-(tricyclo[3.3.1.1/3,7]dec-1-ylcarbonyl)oxy]phenyl]glycine], at HSF-PLA2, the IC50 is 300 nM.
On to `CCCCCCCCCCCCCCc1ccc(N(CC(=O)O)CC(=O)O)cc1` [Example 39, N-(carboxymethyl)-N-(4-tetradecylphenyl)glycine], for which, at HSF-PLA2, the inhibition at 1 µM amounted to 67%.
In the case of `O=C(O)CN(CC(=O)O)c1ccccc1` [Example 39a, N-(carboxymethyl)-N-phenylglycine], the inhibition at 20 µM on HSF-PLA2 is -10%.
For the molecule `CCCCCCCCCC(=O)Nc1cc(NC(=O)CCCCCCCCC)cc(N(CC(=O)O)CC(=O)O)c1` [Example 21], the IC50 at HSF-PLA2 is 3800 nM.
Turning to `CCCCCCCCCCNC(=O)c1cccc(N(CC(=O)O)CC(=O)O)c1` [Example 36d, N-(carboxymethyl)-N-[[(decylamino)carbonyl]phenyl]glycine], the inhibition at 10 µM on HSF-PLA2 came out at 46%.
Consider `CCCCCCCCCCCCCCCCCCOc1cc(OC(C)=O)cc(N(CC(=O)O)CC(=O)O)c1` [Example 80], for which the half-inhibitory concentration (IC50) at HSF-PLA2 stood at 220 nM.
On the same count and under the same terms, the result for `O=C(O)CN(CC(=O)O)c1cc(OCCOc2ccc3ccccc3c2)cc(OCCOc2ccc3ccccc3c2)c1` [Example 6o, N-(carboxymethyl)-N-[3,5-bis[2-[2-naphthalenyloxy)]ethoxy]glycine] reads 600 nM.
Same read-out and setting: to `O=C(O)CN(CC(=O)O)c1cc(OCCOc2cccc3ccccc23)cc(OCCOc2cccc3ccccc23)c1` [Example 6p, N-(carboxymethyl)-N-[3,5-bis[2-[1-naphthalenyloxy)]ethoxy]glycine] belongs 2000 nM; to `CCCCCCCCCCOc1ccc(N(CC(=O)O)CC(=O)O)cc1OCCCCCCCCCC` [Example 119a, N-(carboxymethyl)-N-[3,4-bis(decyloxy)phenyl]glycine], 160 nM; to `CCCCCCCCCCCCCCCCCCOc1cc(OCCCOc2cccnc2)cc(N(CC(=O)O)CC(=O)O)c1` [Example 58i], 300 nM.
Turning to `O=C(O)CN(CC(=O)O)c1cccc(OCCOc2ccc3ccccc3c2)c1` [Example 36g, N-(carboxymethyl)-N-[(3-(2-naphthalenyloxy)ethoxy]phenyl]glycine], the inhibition at 10 µM at HSF-PLA2 came out at 19%.
Take `O=C(O)CN(CC(=O)O)c1cc(OCCCOc2ccc(-c3ccccc3)cc2)cc(OCCCOc2ccc(-c3ccccc3)cc2)c1` [Example 6n]: the IC50 at HSF-PLA2 turned out to be 400 nM.
Same read-out and setting: to `O=C(O)CN(CC(=O)O)c1cc(OCCCOc2cccc(-c3ccccc3)c2)cc(OCCCOc2cccc(-c3ccccc3)c2)c1` [Example 6m] belongs 580 nM.
With `CCCCCCCCCC(=O)Oc1cc(OC(=O)CCCCCCCCC)cc(N(CC(=O)O)CC(=O)O)c1` [Example 6u, N-(carboxymethyl)-N-[3,5-bis[(1-oxodecyl)oxy]phenyl]glycine], the inhibition at 1 µM on HSF-PLA2 worked out at 64%.
Regarding `CCCCCCCC/C=C\CCCCCCCCOc1cccc(N(CC(=O)O)CC(=O)O)c1` [Example 49], at HSF-PLA2, the IC50 turned out to be 300 nM.
The same measure, in the same setting: to `CCCCCCCCCCCCCCCCCCOc1cc(NCC(=O)O)cc(OC(=O)C23CC4CC(CC(C4)C2)C3)c1` [Example 175, N-[[3-(Octadecyloxy)-5-(tricyclo[3.3.1.1/3.7/]dec-1-ylcarbonyl)oxy]phenyl]glycine] belongs 300 nM.
As for `O=C(O)CN(CC(=O)O)c1cccc(C(=O)NC23CC4CC(CC(C4)C2)C3)c1` [Example 36h, N-(carboxymethyl)-N-[3-[(tricyclo[3.3.1.1/3,7/]dec-1-ylamino)carbonyl]phenyl]glycine], the inhibition at 20 µM at HSF-PLA2 was determined as 25%.
As for `O=C(O)CN(CC(=O)O)c1cc(C(=O)NC23CC4CC(CC(C4)C2)C3)cc(C(=O)NC23CC4CC(CC(C4)C2)C3)c1` [Example 6s], at HSF-PLA2, the inhibition at 10 µM was found to be 30%.
Take `O=C(O)CCCCOc1cc(OCCCCC(=O)O)cc(N(CC(=O)O)CC(=O)O)c1` [Example 6i, N-(carboxymethyl)-N-[3,5-bis[(5-hydroxy-5-oxopentyl)oxy]phenyl]glycine]: the inhibition at 20 µM at HSF-PLA2 was 6%.
On to `CCCCCCCCCCOc1cc(OCCCCCCCCCC)cc(N(CC(=O)OCCN(CC)CC)CC(=O)OCCN(CC)CC)c1` [Example 130, N-[3,5-bis(Decyloxy)phenyl]-N-[2-[2-(diethylamino)ethoxy]-2-oxoethyl]glycine 2-(diethylamino)ethyl ester dihydrochloride], for which the inhibition in vivo at 30 mg/kg in the assay with PLA2 Rat Paw Edema was determined as 2%.
